# Measured values reported in patent publication US12043632B2, “6-heteroaryloxy benzimidazoles and azabenzimidazoles as JAK2 inhibitors” (Ajax Therapeutics, Inc., priority 2020, dated 2024).
# Target: T1, JAK2 (JH1domain-catalytic, Y1007F,Y1008F) kinase (Homo sapiens, UniProt O60674, Y1007F/Y1008F)
# T1 construct: JAK2 (JH1domain-catalytic, Y1007F,Y1008F) kinase was expressed as N-terminal fusion; made in house; host or cells: transiently transfected HEK293 cells
# Test: JAK2 JH1 Domain Binding Assay
# Conditions: qPCR readout
# T1 sequence (O60674 849-1124 Y1007F/Y1008F limits assumed): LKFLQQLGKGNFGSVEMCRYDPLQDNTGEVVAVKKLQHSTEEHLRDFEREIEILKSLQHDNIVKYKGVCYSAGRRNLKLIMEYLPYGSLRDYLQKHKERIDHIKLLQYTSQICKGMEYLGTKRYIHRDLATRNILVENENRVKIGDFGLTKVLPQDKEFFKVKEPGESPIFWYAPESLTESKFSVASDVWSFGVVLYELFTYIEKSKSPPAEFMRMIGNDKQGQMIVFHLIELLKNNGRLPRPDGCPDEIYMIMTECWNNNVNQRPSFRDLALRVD
row,Structure (SMILES),Kd [nM]
1,"COCc1n[nH]c2ncc(Oc3cnc4nc(Nc5cc6n(n5)CCCC6(F)F)n(C)c4c3C#N)cc12 [Example I-399, 2-((4,4-difluoro-4,5,6,7-tetrahydropyrazolo[1,5-a]pyridin-2-yl)amino)-6-((3-(methoxymethyl)-1H-pyrazolo[3,4-b]pyridin-5-yl)oxy)-1-methyl-1H-imidazo[4,5-b]pyridine-7-carbonitrile]",< 10
2,"Cn1c(Nc2cc(C(F)(F)F)n(C3CC4(CCOCC4)C3)n2)nc2ncc(Oc3cnc4[nH]ncc4c3)c(C#N)c21 [Example I-400, 6-((1H-pyrazolo[3,4-b]pyridin-5-yl)oxy)-2-((1-(7-oxaspiro[3.5]nonan-2-yl)-5-(trifluoromethyl)-1H-pyrazol-3-yl)amino)-1-methyl-1H-imidazo[4,5-b]pyridine-7-carbonitrile]",< 10
3,"Cn1c(Nc2cc(C(F)(F)F)n(C3CC4(CCOCC4)C3)n2)nc2ncc(Oc3cnc4[nH]ccc4c3)c(C#N)c21 [Example I-401, 6-((1H-pyrrolo[2,3-b]pyridin-5-yl)oxy)-2-((1-(7-oxaspiro[3.5]nonan-2-yl)-5-(trifluoromethyl)-1H-pyrazol-3-yl)amino)-1-methyl-1H-imidazo[4,5-b]pyridine-7-carbonitrile]",10 to 50
4,"Cn1cc(C(F)(F)F)cc(Nc2nc3ncc(Oc4cnn5ccnc(N[C@@H]6CCOC6)c45)c(Cl)c3n2C)c1=O [Example I-402, (R)-3-((7-chloro-1-methyl-6-((4-((tetrahydrofuran-3-yl)amino)pyrazolo[1,5-a]pyrazin-3-yl)oxy)-1H-imidazo[4,5-b]pyridin-2-yl)amino)-1-methyl-5-(trifluoromethyl)pyridin-2(1H)-one]",< 10
5,"Cn1cc(C(F)(F)F)cc(Nc2nc3ncc(Oc4cnn5cc(NCCN6CCC(F)(F)C6)ncc45)c(Cl)c3n2C)c1=O [Example I-403, 3-((7-chloro-6-((6-((2-(3,3-difluoropyrrolidin-1-yl)ethyl)amino)pyrazolo[1,5-a]pyrazin-3-yl)oxy)-1-methyl-1H-imidazo[4,5-b]pyridin-2-yl)amino)-1-methyl-5-(trifluoromethyl)pyridin-2(1H)-one]",< 10
6,"CNc1cn2ncc(Oc3cnc4nc(Nc5cc(C(F)(F)F)cn(C)c5=O)n(C)c4c3)c2cn1 [Example I-404, 1-methyl-3-((1-methyl-6-((6-(methylamino)pyrazolo[1,5-a]pyrazin-3-yl)oxy)-1H-imidazo[4,5-b]pyridin-2-yl)amino)-5-(trifluoromethyl)pyridin-2(1H)-one]",10 to 50
